These results are taken from PMC10928712, “High Target Homology Does Not Guarantee Inhibition: Aminothiazoles Emerge as Inhibitors of Plasmodium falciparum” (ACS Infectious Diseases, 2024).

In brackets after ≈: the same amount, converted by molar mass. Like-named read-outs stand apart in the source and are kept apart here.

Data set [1] deals with P. falciparum 3D7 MOCK cell line. The data set can be described thus: Growth inhibition of MOCK cell line (vector backbone only). The format is cell-based. To be noted: Plasmodium falciparum, 95% CI in brackets. The text has this: (§1) The open reading frame (ORF) encoding 1-deoxy-D-xylulose-5-phosphate synthase (PfDXPS; PF3D7_1337200) was amplified from genomic DNA isolated from unsynchronized P. falciparum 3D7 cultures using the Platinum PCR SuperMix High Fidelity (Invitrogen). Forward and reverse primers contained restriction sites for KpnI and AvrII in sense and antisense orientation, respectively (oligonucleotides pfDXPS-Kpn1-S: […]; pfDXPSmyc-Avr2-AS: […] ). PCR products and the transfection vector pARL1a-hDHFR PfARG-GFP were digested with KpnI and AvrII, purified (Gel extraction Kit and PCR purification kit; Qiagen), and cloned into the transfection vector yielding the construct for overexpression pARL-DXS-strep. XL 10-Gold E. coli ultracompetent cells (Agilent Technologies) were transformed with the generated construct to amplify the plasmid and colonies checked using restriction analysis and sequencing of the plasmid. Bacterial clones carrying the overexpression construct and the empty pARL1a vector (MOCK plasmid) were amplified in overnight cultures, isolated (Plasmid Maxi Kit; QIAGEN), and subsequently used to transfect P. falciparum 3D7 ring-stage parasites, as already described.[59] Briefly, 120 μg of plasmid DNA was centrifuged and air-dried, and the pellet was resuspended in TE buffer and cytomix reagent and mixed with the P. falciparum culture. Parasites were transfected using electroporation and selected with WR 99210. The generation and characterization of the PfTPK overexpression cell line has been reported before.[60]
(§2) P. falciparum cultures were treated as described in method I. For target specification toward PfTPK and PfDXPS, compounds were tested in comparison against overexpressing cell lines and the respective MOCK line containing only the transfected vector backbone. Parasite viability/proliferation was determined.

Data set [2] deals with Hep G2 cells. The data set can be described thus: Hep G2 viability assay (counter screen). The format is cell-based, human. To be noted: Homo sapiens, HepG2, 48 h, cytotoxicity, 48 h. The procedure: HepG2 cells (2 × 10^5 cells per well) were seeded in 24-well, flat-bottomed plates. Culturing of cells, incubations, and OD measurements were performed as described previously with small modifications.[58] 24 h after seeding the cells, the incubation was started by the addition of compounds in a final DMSO concentration of 1%. The metabolic activity of the living cell mass was determined after 48 h. At least three independent measurements were performed for each compound. The IC50 values were determined during logarithmic growth using GraphPad Prism software. All experiments were performed at least in triplicate, and data reported represent the mean ± SD.
A general note: The purpose of a counterscreen is to sort out artefacts and off-target activity.

For data set [3], the system named is P. falciparum 3D7. As to the kind of experiment: Method II growth-inhibition assay (PicoGreen, 3 days), 3D7. The format is cell-based. To be noted: Plasmodium falciparum, 3D7, method II. An excerpt: (§3) Fidock (Columbia University).
Data set [4] in a line: Metabolic stability in human liver S9 fraction. The format is in vitro ADME. The conditions noted are these: 1 μM compound; for half-life at 1 μM: human, pooled liver S9 fraction. The protocol:
For the evaluation of combined phase I and phase II metabolic stability, the compound (1 μM) was incubated with 1 mg/mL pooled liver S9 fraction (XenoTech), 2 mM NADPH, 1 mM UDPGA, 10 mM MgCl2, 5 mM GSH, and 0.1 mM PAPS at 37 °C for 0, 5, 15, 30, and 60 min. The metabolic stabilities of testosterone (1 μM), verapamil (1 μM), and propranolol (1 μM) were determined in parallel to confirm the enzymatic activity of the S9 fraction. The incubation was stopped by precipitation of S9 enzymes with two volumes of cold acetonitrile containing internal standard (150 nM diphenhydramine). Samples were stored on ice for 10 min, and precipitated protein was removed by centrifugation (15 min, 4 °C, 4000 rpm). The concentration of the remaining test compound at the different time points was analyzed by LC-MS/MS (TSQ Quantum Access MAX, Thermo Fisher, Dreieich, Germany) and used to determine half-life (t1/2).

The test system of data set [5] is P. falciparum 3D7. The data set can be described thus: Method III growth inhibition assay (HRP2-ELISA, 3 days), 3D7. It counts as cell-based, Plasmodium falciparum. A general note: An ELISA detects its analyte on a solid surface through an enzyme-linked reagent.
Data set [6] concerns the target M. tuberculosis DXPS. The arrangement: method as in PMID 36320685. The conditions noted are these: Morrison inhibition constant, slow-, tight-binding; read-out: Ki* MtDXPS; cited from earlier work.
Data set [7] has as its system P. falciparum 3D7-TPK+. The data set can be described thus: Growth inhibition of PfTPK overexpressing parasites (3D7-TPK+). It counts as cell-based. To be noted: Plasmodium falciparum, 3D7, read-out: PfTPK IC50. The protocol:
P. falciparum cultures were treated as described in method I. For target specification toward PfTPK and PfDXPS, compounds were tested in comparison against overexpressing cell lines and the respective MOCK line containing only the transfected vector backbone. Parasite viability/proliferation was determined. Analysis of the IC50 values and interpretation of the curves was performed, as described in Section 4.1.2.44.
(§4) eq 1: Fluorescence data normalization [drawing 2] where y is the fluorescence signal in each well, yminimum is the background fluorescence, and ymaximum is the highest measured fluorescence signal in the untreated wells. Drug concentrations (in μM) were transformed to the log(10)of the values. Means of each independent experiment were plotted as individual values, and the SD of the mean from the means shown as error bars. […] In case of transgenic cell lines, the built-in comparison Akaike’s information criteria (AICc) method was applied to the Log IC50s of the different cell lines. The test calculates a percentage probability of the simpler model “Log IC50 is the same for datasets” being correct. The test for homoscedasticity was performed to confirm if no weighting of values was appropriate.

Data set [8] concerns P. falciparum 3D7-DXPS+. The data set can be described thus: Growth inhibition of PfDXPS overexpressing parasites (3D7-DXPS+). It counts as cell-based. To be noted: Plasmodium falciparum, 3D7, read-out: PfDXPS IC50.
Description: as §1, §2

For data set [9], the system named is P. falciparum NF54. As to the kind of experiment: Method II growth-inhibition assay (PicoGreen, 3 days), NF54. The conditions noted are these: Plasmodium falciparum; chloroquine-sensitive NF54, method II. The format is cell-based.
Description: as §3

Data set [10] has as its system blood-stage P. falciparum 3D7. The conditions noted are these: Plasmodium falciparum.
In data set [11] the test system is P. falciparum Dd2. The data set can be described thus: Method III growth inhibition assay (HRP2-ELISA, 3 days), Dd2. The format is cell-based, Plasmodium falciparum. To be noted: Plasmodium falciparum, DD2, chloroquine-resistant Dd2, method III.
Data set [12] has as its system P. falciparum 3D7. As to the kind of experiment: Method I growth-inhibition assay (SYBR Green I, 96 h). It counts as cell-based. To be noted: Plasmodium falciparum.
Description: Nonlinear regression as implemented in GraphPad Prism 7.00 (log(inhibitor) vs response – variable slope (four parameters)) was used to fit the measured data to interpolate the IC50 value from the curve. No specific model was applied. Data was preprocessed by normalizing according to the following formula: […]
as §4

Data set [13] concerns Mycobacterium tuberculosis H37Rv strain. The arrangement: method as in PMID 36320685. The conditions noted are these: cited from earlier work.
The nature of data set [14]: Kinetic solubility determination. The format is physicochemical. The conditions noted are these: PBS with 2% DMSO, aqueous buffer, kinetic from dmso stock, PBS buffer and 2% DMSO; read-out: Max. solubility. The protocol:
The desired compounds were sequentially diluted in DMSO in a 96-well plate. 3 μL of each well was transferred into another 96-well plate and mixed with 147 μL of PBS. Plates were shaken for 5 min at 600 rpm at room temperature (r.t.), and the absorbance at 620 nm was measured. Absorbance values were normalized by blank subtraction and plotted using GraphPad Prism 8.4.2 (GraphPad Software, San Diego, California, USA). Solubility (S) was determined based on the First X value of AUC function using a threshold of 0.005.

The test system of data set [15] is P. falciparum 3D7. Details: method as in earlier work. The conditions noted are these: Novartis HTS 2008; ref (21); cited from earlier work.
Data set [16] deals with P. falciparum W2. Details: method as in earlier work. The conditions noted are these: Novartis HTS 2008; ref (21); cited from earlier work.
Data set [17] has as its system Huh7 (human hepatoma cells). The conditions noted are these: cited from earlier work.
Where [18] appears, read: 3D7, read-out: MOCK IC50, MOCK compared with 3D7-DXPS+.
[19] abbreviates: 3D7, read-out: MOCK IC50, MOCK compared with 3D7-TPK+, single measurement.
Where [20] appears, read: 95% CI in brackets, read-out: IC50 B.
[21] abbreviates: 3D7, method III (HRP2 assay), drc package of R, read-out: IC50 P. falciparum 3D7 (method III).
Setting [22] is: Plasmodium falciparum, 3D7, 3D7, method III (HRP2 assay), drc package of R, read-out: IC50 P. falciparum 3D7 (method III).
Where [23] appears, read: Plasmodium falciparum, 3D7, 3D7, method III, nonlinear regression as in Figure 2, 95% CI in brackets, read-out: IC50 C.

Regarding `OCc1cn(Cc2ccc(Cl)c(Cl)c2)c2ccccc12` [compound 3], the IC50 – broadly, the point on the concentration scale where inhibition reaches its midpoint – came to 17.9 µM in [1] (setting [18]); 23.8 µM in [1] (setting [19]); 0.8 ± 0.2 µM in data set [2]; 17.1 µM in [3] (setting [20]); 17 ± 2 µM in [3] (read-out: IC50 3D7-II); 24 ± 6 µM in [5] (setting [21]). Further, the IC50 is 23.6 ± 6.4 µM in data set [5] (setting [22]); 7.9 µM in data set [5] (setting [23]); 21.1 µM in data set [7]; 17.9 µM in data set [8]; 15 ± 2 µM in [9]; 8 to 21 µM in [10]. In addition, the IC50 in data set [11] came out at 13 ± 9 µM; in data set [12] (3D7, read-out: IC50 3D7-I), 25 ± 3 µM; in [12] (3D7, read-out: IC50 A [μM]) it was 21.4 µM. In addition, the half-life (usually how long it takes for the measured level to halve) at 1 μM in data set [4] is 10 ± 0.4 min. The inhibition constant (Ki) (commonly a dissociation constant, usually derived from enzyme kinetics or from competition with a known ligand) in data set [6] is 1.29 ± 0.2 µM. For the same compound, in [13], the MIC (usually the smallest concentration in the dilution series that meets the test's criterion for growth inhibition) is 10 µM (≈ 3.06 µg/mL).

On to `ON=C(Cc1ccc(Cl)cc1)c1ccc(O)cc1O` [compound 2], for which the IC50 in data set [1] (setting [18]) is 110 µM; in [1] (setting [19]), 90.4 µM; in data set [2] it was > 50 µM; in data set [3] (setting [20]) it was 43.8 µM; in data set [3] (read-out: IC50 3D7-II), 42 ± 4 µM; in data set [5] (setting [21]), 94 ± 8 µM. Moreover, the IC50 is 93.8 ± 8 µM in data set [5] (setting [22]); ~46 µM in data set [5] (setting [23]); 90.4 µM in data set [7]; 110 µM in data set [8]; 41 ± 10 µM in data set [9]; 44 to 74 µM in data set [10]. In addition, the IC50 in data set [11] is 89 ± 31 µM; in data set [12] (3D7, read-out: IC50 3D7-I), 81 ± 3 µM; in [12] (3D7, read-out: IC50 A [μM]), 74.2 µM. Further, the solubility (as a rule, the concentration that dissolves in the medium under given conditions) at 5 min in data set [14] came to 114 ± 6.7 µM (≈ 31.7 µg/mL). Moreover, the t1/2 in data set [4] is 29 ± 0.7 min. Further, the half-life at 1 μM in data set [4] came to 28 min. Moreover, the Ki in data set [6] is 0.27 ± 0.02 µM. For the same compound, the MIC in data set [13] is 10 µM (≈ 2.78 µg/mL).

Consider `COC(C(=NO)c1ccc(Cl)cc1)c1ccccc1` (centres unmarked) [CHEMBL581471], for which the concentration for a half-maximal effect (EC50) (in general, the concentration giving half of the maximal effect) in data set [15] was > 0.912 µM; in data set [16] it was > 1.61 µM. The Huh7 inhibition in [17] is > 10 µM.
